Measured values reported in patent US8114814B2, “Herbicide composition” (Kumiai Chemical Industry Co., Ltd., priority 2007, dated 2012).

Experiments:
Conditions in all cases: 28th day of the treatment
[1] = test system: Echinochloa oryzicola Vasing; assay: Test for herbicidal effect by paddy soil treatment; type: in vivo
Description: (§1) A paddy soil was filled in a plastic pot of 100 cm^2 and subjected to puddling. Thereinto were sowed seeds of Echinochloa oryzicola Vasing, Monochoria vaginalis (Burm. f.) Kunth, Schoenoplectus juncoides (Roxb.) Paila or Cyperus serotinus Rottb., after which water was filled at a depth of 3 cm. Each pot was placed in a greenhouse for raising, At a timing when the Echinochloa oryzicola Vasing reached about a two-leaf stage, a seedling of two-leaf stage rice (variety: Kinnanpuu) was transplanted into each pot at a depth of 2 cm. A wettable powder prepared in accordance with Formulation Example 2 was diluted with water based on the total sum of the active ingredients, and the dilution was dropped on the water surface of the pot. Then, the pot was allowed to stand for raising. The herbicidal effect of the wettable powder was examined at the 28th day of the treatment (the dropping of the dilution) in accordance with the standard of Table 4.

Cyperus serotinus Rottb. = assay: Test for herbicidal effect by paddy soil treatment; type: in vivo
Description: as §1

[2] = test system: Schoenoplectus juncoides (Roxb.) Paila; assay: Test for herbicidal effect by paddy soil treatment; type: in vivo
Description: as §1

[3] = test system: Monochoria vaginalis (Burm. f.) Kunth; assay: Test for herbicidal effect by paddy soil treatment; type: in vivo
Description: as §1

Transplanted Rice = assay: Test for herbicidal effect by paddy soil treatment: phytotoxicity to transplanted rice; type: in vivo, rice (variety: Kinnanpuu)
Description: as §1, with “A wettable powder prepared in accordance with Formulation Example 2 was diluted with water based on the total sum of the active ingredients, and the dilution was dropped on the water surface of the pot.” left out

Direct seeding rice = assay: Test for herbicidal effect by paddy foliage treatment: phytotoxicity to direct seeding rice; type: in vivo, rice (variety: Akebono)
Description: A paddy soil was filled in a plastic pot of 100 cm^2 and subjected to puddling. Thereinto were sowed seeds of rice (variety: Akebono), Echinochloa crusgalli (L.) P. Beauv. Var. crus-galli, Leptochloa chinensis Nees., Monochoria vaginalis (Burm. f.) Kunth, or Fimbristylis miliacea Vahl, after which each plant was raised in a greenhouse in a drained treatment until the Echinochloa crus-galli (L.) P. Beauv. Var. crus-galli reached a two-leaf stage. […] 3 days after the spraying, water was filled at a depth of 3 cm. Then, the pot was allowed to stand for raising. The herbicidal effect of the wettable powder was examined at the 28th day of the treatment (the spraying of the dilution) in accordance with the standard of Table 4.

[4] = test system: Echinochloa crusgalli (L.) P. Beauv. Var. crus-galli; assay: Test for herbicidal effect by paddy foliage treatment; type: in vivo
Description: (§2) A paddy soil was filled in a plastic pot of 100 cm^2 and subjected to puddling. Thereinto were sowed seeds of rice (variety: Akebono), Echinochloa crusgalli (L.) P. Beauv. Var. crus-galli, Leptochloa chinensis Nees., Monochoria vaginalis (Burm. f.) Kunth, or Fimbristylis miliacea Vahl, after which each plant was raised in a greenhouse in a drained treatment until the Echinochloa crus-galli (L.) P. Beauv. Var. crus-galli reached a two-leaf stage. At that timing, a wettable powder prepared in accordance with Formulation Example 2 was diluted with water based on the total sum of the active ingredients, and the dilution was sprayed at a rate of 20 liters/10 ares using a micro-sprayer (a product of OLYMPOS). 3 days after the spraying, water was filled at a depth of 3 cm. Then, the pot was allowed to stand for raising. The herbicidal effect of the wettable powder was examined at the 28th day of the treatment (the spraying of the dilution) in accordance with the standard of Table 4.

[5] = test system: Fimbristylis miliacea Vahl; assay: as above; type: in vivo
Description: as §2

[6] = test system: Monochoria vaginalis (Burm. f.) Kunth; assay: as above; type: in vivo
Description: as §2

[7] = test system: Leptochloa chinensis Nees.; assay: as above; type: in vivo
Description: as §2

## COC(=O)c1ccccc1CS(=O)(=O)NC(=O)Nc1nc(OC)cc(OC)n1 [Bensulfuron-methyl, reference compound]
[1]; Dose 1 g a.i./10a
  herbicidal effect index, Echinochloa oryzicola: 3 (Herbicidal effect or phytotoxicity of 30% to less than 40%)
Cyperus serotinus Rottb.; Dose 1 g a.i./10a
  herbicidal effect index, Cyperus serotinus: 7 (Herbicidal effect or phytotoxicity of 70% to less than 80%)
[2]; Dose 1 g a.i./10a
  herbicidal effect index, Schoenoplectus juncoides: 7 (Herbicidal effect or phytotoxicity of 70% to less than 80%)
[3]; Dose 1 g a.i./10a
  herbicidal effect index, Monochoria vaginalis: 8 (Herbicidal effect or phytotoxicity of 80% to less than 90%)

## CC1(C)CC(SCc2ccccc2)=NO1 [Compound 1]
Transplanted Rice; Dose 20 g a.i./10a
  phytotoxicity index, Transplanted Rice: 1 (Herbicidal effect or phytotoxicity of 10% to less than 20%)
[1]; Dose 20 g a.i./10a
  herbicidal effect index, Echinochloa oryzicola: 8 (Herbicidal effect or phytotoxicity of 80% to less than 90%)
Cyperus serotinus Rottb.; Dose 20 g a.i./10a
  herbicidal effect index, Cyperus serotinus: 2 (Herbicidal effect or phytotoxicity of 20% to less than 30%)
[2]; Dose 20 g a.i./10a
  herbicidal effect index, Schoenoplectus juncoides: 6 (Herbicidal effect or phytotoxicity of 60% to less than 70%)
[3]; Dose 20 g a.i./10a
  herbicidal effect index, Monochoria vaginalis: 4 (Herbicidal effect or phytotoxicity of 40% to less than 50%)

## CC1(C)CC(S(=O)(=O)Cc2c(OCC(F)(F)F)ccc(Cl)c2Cl)=NO1 [Compound 31]
Transplanted Rice; Dose 20 g a.i./10a
  phytotoxicity index, Transplanted Rice: 1 (Herbicidal effect or phytotoxicity of 10% to less than 20%)
Direct seeding rice; Dose 20 g a.i./10a
  phytotoxicity index, Direct seeding rice: 2 (Herbicidal effect or phytotoxicity of 20% to less than 30%)
[4]; Dose 20 g a.i./10a
  herbicidal effect index, Echinochloa crus-galli: 6 (Herbicidal effect or phytotoxicity of 60% to less than 70%)
[5]; Dose 20 g a.i./10a
  herbicidal effect index, Fimbristylis miliacea: 2 (Herbicidal effect or phytotoxicity of 20% to less than 30%)
[6]; Dose 20 g a.i./10a
  herbicidal effect index, Monochoria vaginalis: 3 (Herbicidal effect or phytotoxicity of 30% to less than 40%)
[7]; Dose 20 g a.i./10a
  herbicidal effect index, Leptochloa chinensis: 3 (Herbicidal effect or phytotoxicity of 30% to less than 40%)
[1]; Dose 20 g a.i./10a
  herbicidal effect index, Echinochloa oryzicola: 8 (Herbicidal effect or phytotoxicity of 80% to less than 90%)
Cyperus serotinus Rottb.; Dose 20 g a.i./10a
  herbicidal effect index, Cyperus serotinus: 2 (Herbicidal effect or phytotoxicity of 20% to less than 30%)
[2]; Dose 20 g a.i./10a
  herbicidal effect index, Schoenoplectus juncoides: 4 (Herbicidal effect or phytotoxicity of 40% to less than 50%)
[3]; Dose 20 g a.i./10a
  herbicidal effect index, Monochoria vaginalis: 5 (Herbicidal effect or phytotoxicity of 50% to less than 60%)

## C#CCOc1ccc(Cl)c(Cl)c1CS(=O)(=O)C1=NOC(C)(C)C1 [Compound 33]
Direct seeding rice; Dose 20 g a.i./10a
  phytotoxicity index, Direct seeding rice: 1 (Herbicidal effect or phytotoxicity of 10% to less than 20%)
[4]; Dose 20 g a.i./10a
  herbicidal effect index, Echinochloa crus-galli: 7 (Herbicidal effect or phytotoxicity of 70% to less than 80%)
[5]; Dose 20 g a.i./10a
  herbicidal effect index, Fimbristylis miliacea: 3 (Herbicidal effect or phytotoxicity of 30% to less than 40%)
[6]; Dose 20 g a.i./10a
  herbicidal effect index, Monochoria vaginalis: 6 (Herbicidal effect or phytotoxicity of 60% to less than 70%)
[7]; Dose 20 g a.i./10a
  herbicidal effect index, Leptochloa chinensis: 6 (Herbicidal effect or phytotoxicity of 60% to less than 70%)

## CC1(C)CC(S(=O)(=O)Cc2c(OCC(F)F)ccc(Cl)c2Cl)=NO1 [Compound 34]
Direct seeding rice; Dose 20 g a.i./10a
  phytotoxicity index, Direct seeding rice: 2 (Herbicidal effect or phytotoxicity of 20% to less than 30%)
[4]; Dose 20 g a.i./10a
  herbicidal effect index, Echinochloa crus-galli: 5 (Herbicidal effect or phytotoxicity of 50% to less than 60%)
[5]; Dose 20 g a.i./10a
  herbicidal effect index, Fimbristylis miliacea: 4 (Herbicidal effect or phytotoxicity of 40% to less than 50%)
[6]; Dose 20 g a.i./10a
  herbicidal effect index, Monochoria vaginalis: 5 (Herbicidal effect or phytotoxicity of 50% to less than 60%)
[7]; Dose 20 g a.i./10a
  herbicidal effect index, Leptochloa chinensis: 3 (Herbicidal effect or phytotoxicity of 30% to less than 40%)

## CCOc1cc(Cl)c(CS(=O)(=O)C2=NOC(C)(C)C2)cc1Cl [Compound 54]
Transplanted Rice; Dose 20 g a.i./10a
  phytotoxicity index, Transplanted Rice: 1 (Herbicidal effect or phytotoxicity of 10% to less than 20%)
Direct seeding rice; Dose 20 g a.i./10a
  phytotoxicity index, Direct seeding rice: 2 (Herbicidal effect or phytotoxicity of 20% to less than 30%)
[4]; Dose 20 g a.i./10a
  herbicidal effect index, Echinochloa crus-galli: 7 (Herbicidal effect or phytotoxicity of 70% to less than 80%)
[5]; Dose 20 g a.i./10a
  herbicidal effect index, Fimbristylis miliacea: 2 (Herbicidal effect or phytotoxicity of 20% to less than 30%)
[6]; Dose 20 g a.i./10a
  herbicidal effect index, Monochoria vaginalis: 4 (Herbicidal effect or phytotoxicity of 40% to less than 50%)
[7]; Dose 20 g a.i./10a
  herbicidal effect index, Leptochloa chinensis: 6 (Herbicidal effect or phytotoxicity of 60% to less than 70%)
[1]; Dose 20 g a.i./10a
  herbicidal effect index, Echinochloa oryzicola: 8 (Herbicidal effect or phytotoxicity of 80% to less than 90%)
Cyperus serotinus Rottb.; Dose 20 g a.i./10a
  herbicidal effect index, Cyperus serotinus: 1 (Herbicidal effect or phytotoxicity of 10% to less than 20%)
[2]; Dose 20 g a.i./10a
  herbicidal effect index, Schoenoplectus juncoides: 2 (Herbicidal effect or phytotoxicity of 20% to less than 30%)
[3]; Dose 20 g a.i./10a
  herbicidal effect index, Monochoria vaginalis: 5 (Herbicidal effect or phytotoxicity of 50% to less than 60%)

## Cc1ccc(NC(=O)NC(C)(C)c2ccccc2)cc1 [Daimuron, reference compound]
[1]; Dose 150 g a.i./10a
  herbicidal effect index, Echinochloa oryzicola: 0 (Herbicidal effect (growth inhibition) or phytotoxicity of less that 10%)
Cyperus serotinus Rottb.; Dose 150 g a.i./10a
  herbicidal effect index, Cyperus serotinus: 3 (Herbicidal effect or phytotoxicity of 30% to less than 40%)
[2]; Dose 150 g a.i./10a
  herbicidal effect index, Schoenoplectus juncoides: 7 (Herbicidal effect or phytotoxicity of 70% to less than 80%)
[3]; Dose 150 g a.i./10a
  herbicidal effect index, Monochoria vaginalis: 2 (Herbicidal effect or phytotoxicity of 20% to less than 30%)

## CCC(CC)Nc1c([N+](=O)[O-])cc(C)c(C)c1[N+](=O)[O-] [Pendimethalin, reference compound]
Direct seeding rice; Dose 80 g a.i./10a
  phytotoxicity index, Direct seeding rice: 1 (Herbicidal effect or phytotoxicity of 10% to less than 20%)
[4]; Dose 80 g a.i./10a
  herbicidal effect index, Echinochloa crus-galli: 5 (Herbicidal effect or phytotoxicity of 50% to less than 60%)
[5]; Dose 80 g a.i./10a
  herbicidal effect index, Fimbristylis miliacea: 3 (Herbicidal effect or phytotoxicity of 30% to less than 40%)
[6]; Dose 80 g a.i./10a
  herbicidal effect index, Monochoria vaginalis: 2 (Herbicidal effect or phytotoxicity of 20% to less than 30%)
[7]; Dose 80 g a.i./10a
  herbicidal effect index, Leptochloa chinensis: 5 (Herbicidal effect or phytotoxicity of 50% to less than 60%)

## CCOC(=O)c1cnn(C)c1S(=O)(=O)NC(=O)Nc1nc(OC)cc(OC)n1 [Pyrazosulfuron-ethyl, reference compound]
Direct seeding rice; Dose 3 g a.i./10a
  phytotoxicity index, Direct seeding rice: 1 (Herbicidal effect or phytotoxicity of 10% to less than 20%)
[4]; Dose 3 g a.i./10a
  herbicidal effect index, Echinochloa crus-galli: 2 (Herbicidal effect or phytotoxicity of 20% to less than 30%)
[5]; Dose 3 g a.i./10a
  herbicidal effect index, Fimbristylis miliacea: 8 (Herbicidal effect or phytotoxicity of 80% to less than 90%)
[6]; Dose 3 g a.i./10a
  herbicidal effect index, Monochoria vaginalis: 6 (Herbicidal effect or phytotoxicity of 60% to less than 70%)
[7]; Dose 3 g a.i./10a
  herbicidal effect index, Leptochloa chinensis: 0 (Herbicidal effect (growth inhibition) or phytotoxicity of less that 10%)

## COCc1cccc(C(O)c2nc(OC)cc(OC)n2)c1NS(=O)(=O)C(F)F (stereo not shown) [Pyrimisulfan, reference compound]
Transplanted Rice; Dose 1 g a.i./10a
  phytotoxicity index, Transplanted Rice: 1 (Herbicidal effect or phytotoxicity of 10% to less than 20%)
[1]; Dose 1 g a.i./10a
  herbicidal effect index, Echinochloa oryzicola: 6 (Herbicidal effect or phytotoxicity of 60% to less than 70%)
Cyperus serotinus Rottb.; Dose 1 g a.i./10a
  herbicidal effect index, Cyperus serotinus: 9 (Herbicidal effect or phytotoxicity of 90% to less than 100%)
[2]; Dose 1 g a.i./10a
  herbicidal effect index, Schoenoplectus juncoides: 9 (Herbicidal effect or phytotoxicity of 90% to less than 100%)
[3]; Dose 1 g a.i./10a
  herbicidal effect index, Monochoria vaginalis: 6 (Herbicidal effect or phytotoxicity of 60% to less than 70%)
